Assay results published in patent publication US20230339991A1, “HYPOXIA-ACTIVATED DNA ALKYLATING AGENT AND MEDICAL USE THEREOF” (ASCENTAWITS PHARMACEUTICALS, LTD., priority 2020, published 2023).
Where two headings read alike, the source gives them in different places.

Tests used:
[1] = system: DLD-1 BRCA2 KO (BRCA2 deletion) cells; test: Clonogenic assay, DLD-1 BRCA2 KO; format: cell-based; settings: for IC90: Homo sapiens, 3 h
Experimental: (§1) The following PSN-1 cells, PANC1 cells, MiaPaCa-2 cells, H460 cells, DLD-1 WT (wild type) cells, DLD-1 BRCA2 KO (BRCA2 deletion) cells were seeded in 10 cm vitreous cell culture plates at specific cell numbers and incubated for 2 days at 37° C. and under the conditions of 5% CO2, 95% air and 100% relative humidity. On day 3, test compounds TH302 or AST-002-P2 at the specific concentrations were added to the cells, and incubated for 3 hours together with the cells under normoxic (21% O2) and hypoxic conditions (<0.01% O2), respectively. After cells were stimulated by compounds, the cells were washed once with 1×PBS and digested into single cells with pancreatic enzymes for cell counting. The above cells in specific cell numbers were reseeded in a new culture plate and cultured for 7 days to perform single cell colony formation. When single cells in compound culture plates stimulated under normoxic conditions proliferated to about 50 cells, the cultures were removed and stained with 0.5% crystal violet for 40 minutes. After staining, cells were counted for colonies using Colony Counter (VWR) and the IC90 was calculated.

PANC1 cells = test: Clonogenic assay, PANC1; format: cell-based, human; settings: for IC90: Homo sapiens, PANC-1, 3 h
Experimental: as §1

[2] = system: DLD-1 WT (wild type) cells; test: Clonogenic assay, DLD-1 WT; format: cell-based; settings: for IC90: Homo sapiens, 3 h
Experimental: as §1

MiaPaCa-2 cells = test: Clonogenic assay, MiaPaCa-2; format: cell-based, human; settings: for IC90: Homo sapiens, MIA PaCa-2, 3 h
Experimental: as §1

CYP450R enzyme = target: T1, CYP450R enzyme (Homo sapiens, UniProt P16435); test: Hypoxia-dependent reduction experiments; format: biochemical; settings: NADPH and CYP 450R enzymes
T1 sequence (P16435 1-677): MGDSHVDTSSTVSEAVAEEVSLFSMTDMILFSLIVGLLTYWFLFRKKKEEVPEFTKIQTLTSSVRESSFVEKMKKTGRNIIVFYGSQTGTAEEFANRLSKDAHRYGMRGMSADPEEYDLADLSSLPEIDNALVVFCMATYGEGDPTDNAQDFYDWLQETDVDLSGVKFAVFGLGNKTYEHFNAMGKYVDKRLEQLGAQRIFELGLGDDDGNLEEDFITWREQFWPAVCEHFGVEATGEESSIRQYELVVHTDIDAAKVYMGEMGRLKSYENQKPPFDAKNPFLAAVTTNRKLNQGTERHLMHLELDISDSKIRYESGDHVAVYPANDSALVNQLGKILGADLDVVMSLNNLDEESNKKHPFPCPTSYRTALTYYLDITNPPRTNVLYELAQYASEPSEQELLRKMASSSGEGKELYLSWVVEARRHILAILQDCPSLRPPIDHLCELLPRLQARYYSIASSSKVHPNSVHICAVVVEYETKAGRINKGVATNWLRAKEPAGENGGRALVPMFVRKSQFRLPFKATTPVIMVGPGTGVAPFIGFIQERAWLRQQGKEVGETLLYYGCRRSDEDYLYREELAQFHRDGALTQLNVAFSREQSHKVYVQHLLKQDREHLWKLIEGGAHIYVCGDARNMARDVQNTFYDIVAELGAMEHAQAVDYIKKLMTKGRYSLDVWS
Experimental: The ingredients were added to each test tube without the addition of NADPH. Then 50 μl of sample from condition B was transferred to 100 μl acetonitrile (T=0). For samples to be tested under hypoxic conditions, the test tubes were placed in an hypoxic chamber (BACTRON anaerobic/environmental chamber). The reaction was initiated by adding NADPH to test tubes A and C and the sample was then placed at 37° C. For samples to be tested in air, the test tubes were placed in a hot plate at 37° C. After 30 minutes and 2 hours of incubation, 50 μl of samples were taken from each test tube and mixed with 100 μl acetonitrile. Any protein precipitate was removed by spinning all test tubes and placed into HPLC vials for analysis. The results were compared to the calibration curve of the real standard.

[3] = 21% O2, read-out: IC90 Normoxia
[4] = <0.01% O2, read-out: IC90 Hypoxia

Cn1c(COP(=O)(NCCBr)NCCBr)cnc1[N+](=O)[O-] [TH-302, Evofosfamide]
IC90 [1, 3]: 21.9 µM | IC90 [1, 4]: 0.00301 µM | HCR ([1]; IC90 ratio normoxic/N2): 7277 | IC90 (PANC1 cells; [3]): > 100 µM | IC90 (PANC1 cells; [4]): 7.29 µM | HCR (PANC1 cells; IC90 ratio normoxic/N2): >13.7 | IC90 [2, 3]: 26.2 µM | IC90 [2, 4]: 0.21 µM | HCR ([2]; IC90 ratio normoxic/N2): 125 | IC90 (MiaPaCa-2 cells; [3]): 9.68 µM | IC90 (MiaPaCa-2 cells; [4]): 0.388 µM | HCR (MiaPaCa-2 cells; IC90 ratio normoxic/N2): 25 | reduction rate compared (compound A vs TH-302) (CYP450R enzyme): similar
